Columns and labels:
Format in all cases: cell-based
[1] = test system: phosphorylated ZAP70; experiment: Phosphorylated ZAP70 in human CD8+ T cells from whole blood in vitro (flow cytometry); details: T-cell, whole blood from six human donors, 2 hrs 37° C., anti-CD3/anti-CD28 + crosslinker 60 minutes, read-out: Average mean EC50±standard deviation, phosphorylated ZAP70
Method: To assess these candidate clinical proximal biomarkers of Cbl-b inhibition on T cells, pharmacodynamic analysis was performed. Whole blood was obtained from human donors and incubated with increasing concentrations of Compound 23. The response to Cbl-b inhibition on phosphorylated HS1, PLCγ2, and ZAP70 was measured in CD8^+ T cells using flow cytometry. This technique is highly quantitative and can measure multiple phosphorylation markers in different cell populations within the same sample.
For pharmacodynamic analysis, whole blood was obtained from six human donors (BioIVT) and used for flow cytometry assays to evaluate phosphorylated biomarkers HS1, PLCγ2, and ZAP70 in CD8^+ T cells.
Whole blood was collected in a collection tube coated with sodium heparin. […]
Stained cells were run on an Attune NxT Acoustic Focusing Flow Cytometer (Thermo Fisher, cat. No. A29004), and data was analyzed using FlowJo (v10.6.1) and GraphPad Prism (v8.00) software. Single lymphocytes were gated for CD8^+ cells (CD45^+/CD8^+) cells, and population frequencies were calculated for each population. The data is quantified by the percent positive. […] As protein becomes phosphorylated the fluorescence increases resulting in a larger fraction of the cells entering that gate. Each population was evaluated for % positive pY759-PLCγ2, pY397-HS1 levels, pY319/Syk (Y352)-ZAP70 levels.

[2] = test system: pY180/pY511-ITK; experiment: Phosphoprotein screen in human whole blood with CBL inhibitor at 10 uM: ITK; details: 1 hr 37° C., human whole blood 8 donors, anti-CD3/CD28 + crosslinker 60 minutes
Method: (§1) To identify proximal biomarkers of CBL-B inhibition in immune cells, a panel of phosphorylated proteins were screened in human whole blood incubated with CBL-B inhibitor and concomitant anti-CD3 and anti-CD28 antibodies. The effect of CBL-B inhibition was assessed across multiple cellular signaling networks.
(§2) Human heparinized whole blood from 8 donors was received after an overnight shipment at 4° C. The blood was plated, treated with CBL inhibitor at 10 uM and incubated at 37° C. for 60 minutes. After incubation, the cells were stimulated with anti-CD3/CD28 followed by a cross-linking antibody (30 μg of goat anti-mouse IgG (H+L) antibody (Invitrogen)). After 60 minutes, the cells were fixed, and stained using surface markers for T cells (CD3^+CD4^+& CD3^+CD8^+) and analyzed by flow cytometry for target phosphorylation of the following markers: pY180/pY511-ITK, pY397-HS1, pY759-PLCg2, pY783-PLCg1, pY525/pY526/pY348-SYK & pY319-Zap70.
(§3) Fold change of each biomarker was calculated with the following example equation: […]
(§4) Whole blood from eight human donors was collected in sodium heparin anti-coagulant treated with 10 μM of Compound 23 for 1 hr at 37° C. […] Fold change of % phosphorylation normalized to DMSO was quantitated in T cells (CD8^+) using flow cytometry is provided in FIGS. 6A-6B.

[3] = test system: pY759-PLCg2; experiment: Phosphoprotein screen in human whole blood with CBL inhibitor at 10 uM: PLCγ2; details: 1 hr 37° C., human whole blood 8 donors, anti-CD3/CD28 + crosslinker 60 minutes
Method: as §1, §2, §3, §4

Q: Which EC50 [1] does the source give for C[C@H]1CCCN(Cc2cc3c(c(C(F)(F)F)c2)CN(c2cccc([C@]4(c5nncn5C)C[C@@H](C)C4)c2)C3=O)C1 [Compound 23] here?
A: 120 ± 8.97 nM

Q: And the “increased phosphorylation of ITK compared to DMSO control” value [2]?
A: 3-4 fold

Q: What about the “increased phosphorylation of PLCγ2 compared to DMSO control” value [3] of the same compound?
A: 3-4 fold

— patent US20230355599A1, “BIOMARKERS FOR CBL, AND COMPOSITIONS AND METHODS FOR THEIR USE” (NURIX THERAPEUTICS, INC., priority 2022, published 2023)
